Where two headings read alike, the source gives them in different places. Marks after values point to notes of the source that are not given here.
How the values were obtained:
[1] = Effect of temperature on expulsion percent, Pb^2+ spiked TS 5, 1a 1.0 g/100 ml, 24 h (Example 12)
Description: A test solution containing 1-15 mg/l of Al^3+, Fe^2/3+, Mg^2+, Mn^2+, Ni^2+ and Zn^2+; 0.1-0.9 mg/l of Ca^2+ and Na^+; and trace amount of other Cr^3+, Co^2+, Cu^2+, Eu^3+, La^3+, Nd^3+, Y^3+, UO2^2+ and Nb^5+ cations were prepared.
Effect of temperature to selected metal expulsion per cents was tested using TS 5 with comlexation agent 1a. TS 5 (100 ml), spiked with known amounts of lead (Pb^2+) cations, was stirred with 1a (1.0 g) at selected temperature for 24 h followed by separation of 1a by filtration trough 0.2 μm syringe filter. Metal concentrations at 4° C., 7° C., 22° C., 30° C., 40° C. and 50° C. were determined by using ICP-AES analysis.

[2] = Solubility of the compounds, molybdenum blue method, UV/Vis 880 nm (Example 6); format: physicochemical; conditions: saturated aqueous solution
Excerpt: The low solubility is achieved by using long carbon chain(s) or aromatic ring(s) in the bisphosphonate structure I. Advantageously, compound I contains 7-16 carbon atoms either in chain, branched chain or cyclic structure or in combination of these structural units between A and X, and preferably in the chain starting from the P-C-P bridging carbon and the number of heteroatomic functional groups excluding the phosphorous functionalities are limited to two or three groups. The solubility decreases even more if compound I contains functional groups which are capable to form twitter ions with each other. Typical examples of twitter ions are acids (e.g., —CO2H or —PO3H2) and bases (amines) in the same molecule. Solubilities of selected bisphosphonate compounds I were determined with UV/Vis spectrophotometer at 880 nm using molybdenum blue method (Finnish Standard Association SFS 3026: Determination of phosphate in water. Finnish Standard Association SFS, Helsinki Finland, 1986).
Solubilities of selected compounds were determined with UV/Vis Spectrophotometer at 880 nm using molybdenum blue method from saturated aqueous samples solutions (Finnish Standard Association SFS 3026: Determination of phosphate in water. Finnish Standard Association SFS, Helsinki Finland, 1986).

[3] = Collection of Sc^3+ from silicate soil (Example 25); conditions: digested spiked silicate soil solution (20 ml); 1a 100 mg; 24 h
Description: Silicate soil (1000 g) was spiked with […] (767 mg). A sample (200 mg) was weighted to Teflon vial followed by adding concentrated HCl (9 ml) and HNO3 (3 ml) solutions. The mixture was heated under microwave for 50 min followed by adding HF (3 ml) and microvawe heating was continued until solids were dissolved totally. The resulting solution was treated with 4% H3BO3 (10 ml) with heating and sample A (5 ml) was taken. The rest of the solution (20 ml) was treated with 1a (100 mg) at room temperature for 24 h. After filtration trough 0.2 μm syringe filter Sc^3+ concentration before and after treated was determined by using AAS method to give 87% recovery of Sc^3+.

[4] = Purification of water draining through the dump site, TS 1 (Example 16); conditions: Mo^2+
[5] = Recycling and regeneration of solid bisphosphonate material (Example 27); conditions: 1a 700 mg
Description: Compound 1a (700 mg) was weighed on sintered disc (porosity G-4) and aqueous CuCl2x2 H2O (20 ml) solution containing ca. 47 700 ppm of copper was passed slowly through the powder under vacuum. […] After the sintered disc was dry, aqueous HCl (25 ml, 2M) was passed slowly through the sintered disc. During this regeneration process solid bisphoshonate material on sintered disc turned from blue to white and filtered HCl solution was pale blue. The same procedure using the original 1a powder on sintered disc and a fresh CuCl2x2 H2O (20 ml) solution was repeated 20 times. The copper concentrations measured by AAS of the filtered HCl solution was 2294 ppm, 859 ppm and 713 ppm after first, 10th and 20th regeneration cycle, respectively. The amount of 1a after the last regeneration step was 630 mg (90% of the original amount).

NCCCCCCCCCCC(O)(P(=O)(O)O)P(=O)(O)O [Compound 1a, 11-Amino-1-hydroxyundecane-1,1-diyldiphosphonic acid]
Expulsion [%] ([1]; Al^3+, 4° C.): 6.3% | Expulsion [%] ([1]; Al^3+, 7° C.): 15.4% | Expulsion [%] ([1]; Al^3+, 22° C.): 18.5% | Expulsion [%] ([1]; Al^3+, 30° C.): 14.6% | Expulsion [%] ([1]; Al^3+, 40° C.): 98.0% | Expulsion [%] ([1]; Al^3+, 50° C.): 97.6% | Expulsion [%] ([1]; Ca^2+, 4° C.): 0.0% | Expulsion [%] ([1]; Ca^2+, 7° C.): 0.0% | Expulsion [%] ([1]; Ca^2+, 22° C.): 9.4% | Expulsion [%] ([1]; Ca^2+, 30° C.): 10.0% | Expulsion [%] ([1]; Ca^2+, 40° C.): 63.5% | Expulsion [%] ([1]; Ca^2+, 50° C.): 71.2% | Expulsion [%] ([1]; Cd^2+, 4° C.): 16.1% | Expulsion [%] ([1]; Cd^2+, 7° C.): 18.3% | Expulsion [%] ([1]; Cd^2+, 22° C.): 34.5% | Expulsion [%] ([1]; Cd^2+, 30° C.): 41.3% | Expulsion [%] ([1]; Cd^2+, 40° C.): 99.0% | Expulsion [%] ([1]; Cd^2+, 50° C.): 98.9% | Expulsion [%] ([1]; Fe^2/3+, 4° C.): 0.0% | Expulsion [%] ([1]; Fe^2/3+, 7° C.): 0.7% | Expulsion [%] ([1]; Fe^2/3+, 22° C.): 5.2% | Expulsion [%] ([1]; Fe^2/3+, 30° C.): 4.4% | Expulsion [%] ([1]; Fe^2/3+, 40° C.): 99.3% | Expulsion [%] ([1]; Fe^2/3+, 50° C.): ≥ 99.3^1% | Expulsion [%] ([1]; Mg^2+, 4° C.): 0.7% | Expulsion [%] ([1]; Mg^2+, 7° C.): 0.7% | Expulsion [%] ([1]; Mg^2+, 22° C.): 7.1% | Expulsion [%] ([1]; Mg^2+, 30° C.): 5.5% | Expulsion [%] ([1]; Mg^2+, 40° C.): ≥ 97.7^1% | Expulsion [%] ([1]; Mg^2+, 50° C.): ≥ 97.7^1% | Expulsion [%] ([1]; Mn^2+, 4° C.): 4.6% | Expulsion [%] ([1]; Mn^2+, 7° C.): 5.3% | Expulsion [%] ([1]; Mn^2+, 22° C.): 14.7% | Expulsion [%] ([1]; Mn^2+, 30° C.): 13.3% | Expulsion [%] ([1]; Mn^2+, 40° C.): ≥ 99.7^1% | Expulsion [%] ([1]; Mn^2+, 50° C.): ≥ 99.7^1% | Expulsion [%] ([1]; Ni^2+, 4° C.): 0.9% | Expulsion [%] ([1]; Ni^2+, 7° C.): 1.4% | Expulsion [%] ([1]; Ni^2+, 22° C.): 4.6% | Expulsion [%] ([1]; Ni^2+, 30° C.): 4.6% | Expulsion [%] ([1]; Ni^2+, 40° C.): 97.1% | Expulsion [%] ([1]; Ni^2+, 50° C.): 95.2% | Expulsion [%] ([1]; Pb^2+, 4° C.): ≥ 98.1^1% | Expulsion [%] ([1]; Pb^2+, 7° C.): ≥ 98.1^1% | Expulsion [%] ([1]; Pb^2+, 22° C.): ≥ 98.1^1% | Expulsion [%] ([1]; Pb^2+, 30° C.): ≥ 98.1^1% | Expulsion [%] ([1]; Pb^2+, 40° C.): ≥ 98.1^1% | Expulsion [%] ([1]; Pb^2+, 50° C.): ≥ 98.1^1% | Expulsion [%] ([1]; Zn^2+, 4° C.): 9.0% | Expulsion [%] ([1]; Zn^2+, 7° C.): 10.4% | Expulsion [%] ([1]; Zn^2+, 22° C.): 22.9% | Expulsion [%] ([1]; Zn^2+, 30° C.): 25.7% | Expulsion [%] ([1]; Zn^2+, 40° C.): 97.6% | Expulsion [%] ([1]; Zn^2+, 50° C.): 98.0% | solubility [2]: 59 mg/L | solubility ([2]; read-out: mg/l P (solubility calculated as elemental phosphorus)): 10 mg/L | recovery of Sc^3+ [3]: 87% | Expulsion [%] ([4]; Spiked TS 1): ≥ 52^2) % | Expulsion [%] ([4]; TS 1): ≥ 58^2) % | copper concentration of the filtered HCl solution ([5]; after 10th regeneration cycle): 859 ppm | copper concentration of the filtered HCl solution ([5]; after 20th regeneration cycle): 713 ppm | copper concentration of the filtered HCl solution ([5]; after first regeneration cycle): 2294 ppm
